We go through 1 substance from patent US20130109581A1, “POSITIVELY CHARGED SPECIES AS BINDING REAGENTS IN THE SEPARATION OF PROTEIN AGGREGATES FROM MONOMERS” (priority 2009, published 2013).

Where “and” joins values, the source holds several entries; their conditions need not be identical. Equal entries are not always repeated.

The target of one assay is Aβ42 ADDL (Homo sapiens, UniProt P05067). The assay is described as follows: Misfolded Protein Assay, LoD and capture in CSF: ADDL. The conditions noted are these: for LoD: spiked into CSF. It is filed as binding. The method, then: (§1) The Ab42 aggregates were prepared as previously described: fibrils were prepared per Stine et al (JBC 2003, 278, p11612), globulomers were prepared per Barghorn et al (J Neurology 2005 95 p834), ADDLs were prepared per Lambert et al (PNAS 1998, 95 p6448), and ASPDs were prepared per Noguchi et al (JBC 2009 284 p32895). Normal CSF was pooled from clinically characterized non-demented patient CSF samples. AD CSF was pooled from clinically-characterized AD patient samples. Alzheimer's Disease Brain Homogenate (ADBH) was prepared by sonication of clinically diagnosed AD patient brain samples in 0.2M.sucrose (1:10 w/v).
(§2) For the capture assay (Misfolded Protein Assay), aliquots of the beads (30 ul) were added to wells of a 96 well plate, followed by 125 ul of sample in 80:20 CSF:TBSTT. The plate was sealed and incubated for 1 h at 37 C with shaking. The plate was washed with TBST and the residual buffer removed. A denaturing solution (0.1 N NaOH) was added to each well and the plate heated to 80 C. for 30 min with shaking. After cooling the plate to RT, a neutralizing buffer (0.12 M NaH2PO3-0.4% TW20,) was added and the plate shaken briefly at RT. The assay was analyzed using the triplex Mesoscale Discovery ELISA kit for Aβ. The Aβ in the samples eluted from the beads were detected per the manufacturer's protocol.
(§3) For the Limit of Detection (LoD) studies, serial dilutions of each aggregate were spiked into CSF and were assayed per the protocol described above. The LoD was defined as 2× over background levels.
(§4) This pattern minors the capture selectivity observed when these species are tested with 3 ul of PSR1 beads and 1 ng/mL of aggregate.

In a further assay the target is PrP^Sc (Mesocricetus auratus, UniProt P04273).
Sequence of PrP^Sc (P04273 23-231 limits assumed): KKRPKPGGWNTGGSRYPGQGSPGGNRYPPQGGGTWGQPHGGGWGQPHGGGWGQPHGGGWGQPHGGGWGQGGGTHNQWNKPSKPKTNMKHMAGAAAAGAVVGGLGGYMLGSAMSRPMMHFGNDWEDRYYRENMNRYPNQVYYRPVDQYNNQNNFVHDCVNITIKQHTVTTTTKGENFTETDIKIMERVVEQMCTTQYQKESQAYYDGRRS
A further assay deals with T1, Aβ(1-42) aggregates (Homo sapiens, UniProt P05067).
T1 construct: For Aβ(1-42), 10 nL of 10% brain homogenate was added to each well; from tissue; host or cells: Alzheimer's disease patient brain homogenate
It is filed as binding.

For assay [1], the target named is T2, E22K globulomer (beta amyloid 1-42, Italian mutation) (Homo sapiens, UniProt P05067, E693K).
T2 construct: Three beta amyloid 1-42 peptides were generated to test the role of E22; purchased Anaspec
The assay is described as follows: NMPA capture of E22K globulomer. The conditions noted are these: positively charged mutant; FIG. 10. Type of assay: binding. The source says: Three beta amyloid 1-42 peptides were generated to test the role of E22: a wild-type peptide, a mutant peptide containing Arctic mutation E22G with a neutral charge, and a mutant peptide containing Italian mutation E22K with a positive charge. Synthetic peptides were commercially available from Anaspec.
Mutant peptides were oligomerized according to the methods described in Example 3.

For a further assay, the target named is amylin fibrils (Homo sapiens, UniProt P10997). The assay is described as follows: MPA of in vitro synthesized amylin. Type of assay: binding. The conditions noted are these: buffer and plasma; FIG. 45.
Sequence of amylin fibrils (P10997 34-70 limits assumed): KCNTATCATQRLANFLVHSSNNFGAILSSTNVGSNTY
The next assay addresses T3, Aβ42 Fibrils (Homo sapiens, UniProt P05067).
T3 construct: The Ab42 aggregates were prepared as previously described
Nature of the assay: Misfolded Protein Assay, LoD and capture in CSF: fibrils. Type of assay: binding. The settings on record: for LoD: spiked into CSF. The method, then:
as §1, §2, §3, §4

The target of the next assay is T4, Aβ42 ASPD (Homo sapiens, UniProt P05067).
T4 construct: The Ab42 aggregates were prepared as previously described
The assay is described as follows: Misfolded Protein Assay, LoD and capture in CSF: ASPD. It is filed as binding. The conditions noted are these: for LoD: spiked into CSF. On the procedure:
as §1, §2, §3, §4

The target of a further assay is T5, Abeta 1-42 globulomer (Homo sapiens, UniProt P05067).
T5 construct: beta amyloid (1-42) was monomerized with incubation in hexafluoroisopropanol
The assay is described as follows: Globulomer capture assay in CSF (Example 6). It is filed as binding.

Another assay deals with 263K prion infectivity. On the set-up: species or system Tg(SHaPrP) mice. The conditions noted are these: mouse, in vivo.
The target of a further assay is prion protein (Homo sapiens, UniProt P04156).
Setting [2] is: 3 ul of beads and 1 ng/mL of aggregate.

On to Nab-Nab-Nab-Nbn-Nab-Nbn [PSR1], for which the “capture of ADDL” value at Aβ42 ADDL (setting [2]) came out at 1219. Further, the LoD is about 20 amol on Aβ42 ADDL; ~200 pg/mL and 200 pg/mL at Aβ42 ADDL (LoD = 2× over background); under 2 amol at Aβ42 Fibrils; ~50 pg/mL and 50 pg/mL at Aβ42 Fibrils (LoD = 2× over background); about 20 amol at Aβ42 ASPD; ~200 pg/mL and 200 pg/mL at Aβ42 ASPD (LoD = 2× over background). Moreover, the “PrP^Sc capture signal” value on PrP^Sc is “Signal was observed with the 100 or 300 ng/mL spike levels”. For the same substance, the “distinguishing control and AD brain homogenates, Abeta (1-42) detected” value at Aβ(1-42) aggregates was “clearly distinguished between control and either vCJD or AD samples”. In assay [1], the “capture of E22K globulomer” value is given as “captured efficiently”. Also, at amylin fibrils, the “binding to amylin fibrils over monomers” value was “bind preferentially to in vitro-synthesized amylin fibrils over amylin monomers in both buffer (A) and plasma (B)”. Also, on Aβ42 Fibrils (setting [2]), the “capture of Fibril” value is 3636. The “capture of ASPD” value at Aβ42 ASPD (setting [2]) is given as 1096. Further, the “42:40 (signal:noise ratio)” value at Abeta 1-42 globulomer (1 ng/ml average reading, ratio of 42 to 40) is listed as 4.1. Besides, the “42, 1 ng/ml average reading” value at Abeta 1-42 globulomer (Abeta 1-42 globulomer spiked at 1 ng/mL into CSF) was found to be 970.5 RLUs. Further, in the assay on 263K prion infectivity, the “125 μl pooled plasma corresponds to 30 μl of a dilution of 263 K hamster brain homogenate” value was 10^−8 dilution of 263 K and 10^−7 dilution of 263 K. In addition, the “Attack rate (Clinical TSE/total inoculated)” value in the assay with 263K prion infectivity was 100% (8/8) and 50% (2/4) and 100% (4/4) and 81% (13/16). Also, the “Mean incubation period (days)” value with 263K prion infectivity was 74 ± 3 dpi and 76 ± 5 dpi and 94 ± 5 dpi. In addition, the “capture and transmission of prion infectivity” value in the assay on 263K prion infectivity was “capture prion infectivity from prion-infected blood samples and transmit it with high efficiency to Tg(SHaPrP) mice”. For the same substance, in the assay on 263K prion infectivity, the “incubation period (days)” value is 56, 85 days. Moreover, the mean incubation times in the assay on 263K prion infectivity is recorded as 74-94 days post inoculation. For the same substance, at prion protein, the “distinguishing control and vCJD brain homogenates, prion protein detected” value was “clearly distinguished between control and either vCJD or AD samples”.
